Source: ChEMBL document CHEMBL3992552, “Mechanisms of action and structure-activity relationships of cytotoxic flavokawain derivatives” (Bioorg Med Chem, 2017)
pIC50: −log10 of the molar value. Active and inactive are the calls of the source. The calls are words filed in the database; no cut-off is given here.

Legend:
HaCaT [1] = experiment: Cytotoxicity against human HaCaT cells assessed as cell survival at 50 uM after 48 hrs by Hoechst 33342 staining based assay relative to control; type: functional; conditions: read-out: Survival
[2] = Cytotoxicity against human fibroblasts assessed as cell survival at 50 uM after 48 hrs by Hoechst 33342 staining based assay relative to control; set-up: species or system Fibroblast; conditions: read-out: Survival
[3] = Selectivity index, ratio of IC50 for human fibroblasts to IC50 for human PC3 cells
HCT-116 [4] = experiment: Cytotoxicity against human HCT116 cells assessed as cell viability after 48 hrs by Hoechst 33342 staining based assay; type: functional; conditions: HCT-116, 48 h
[5] = Selectivity index, ratio of IC50 for human fibroblasts to IC50 for human HaCaT cells
Caco-2 [6] = experiment: Cytotoxicity against human Caco2 cells assessed as cell viability after 48 hrs by Hoechst 33342 staining based assay; type: functional; conditions: Caco-2, 48 h
PC-3 [7] = experiment: Cytotoxicity against human PC3 cells assessed as cell viability after 48 hrs by Hoechst 33342 staining based assay; type: functional; conditions: PC-3, 48 h
[8] = Selectivity index, ratio of IC50 for human fibroblasts to IC50 for human Caco2 cells
[9] = Selectivity index, ratio of IC50 for human fibroblasts to IC50 for human RL cells
Huh-7 [10] = experiment: Cytotoxicity against human HuH7 cells assessed as cell survival at 50 uM after 48 hrs by Hoechst 33342 staining based assay relative to control; type: functional; conditions: Huh-7, 48 h, read-out: Survival
MCF7 [11] = experiment: Cytotoxicity against human MCF7 assessed as cell viability after 48 hrs by Hoechst 33342 staining based assay; type: functional; conditions: MCF7, 48 h
HaCaT [12] = experiment: Cytotoxicity against human HaCaT cells assessed as cell viability after 48 hrs by Hoechst 33342 staining based assay; type: functional
[13] = Selectivity index, ratio of IC50 for human fibroblasts to IC50 for human MDA-MB-231 cells
NCI-H727 [14] = experiment: Cytotoxicity against human NCI-H727 cells assessed as cell survival at 50 uM after 48 hrs by Hoechst 33342 staining based assay relative to control; type: functional; conditions: NCI-H727, 48 h, read-out: Survival
MDA-MB-231 [15] = experiment: Cytotoxicity against human MDA-MB-231 cells assessed as cell survival at 50 uM after 48 hrs by Hoechst 33342 staining based assay relative to control; type: functional; conditions: MDA-MB-231, 48 h, read-out: Survival
[16] = Selectivity index, ratio of IC50 for human fibroblasts to IC50 for human HuH7 cells
[17] = Selectivity index, ratio of IC50 for human fibroblasts to IC50 for human NCI-H727 cells
HCT-116 [18] = experiment: Cytotoxicity against human HCT116 cells assessed as cell survival at 50 uM after 48 hrs by Hoechst 33342 staining based assay relative to control; type: functional; conditions: HCT-116, 48 h, read-out: Survival
MDA-MB-231 [19] = experiment: Cytotoxicity against human MDA-MB-231 cells assessed as cell viability after 48 hrs by Hoechst 33342 staining based assay; type: functional; conditions: MDA-MB-231, 48 h
[20] = Selectivity index, ratio of IC50 for human fibroblasts to IC50 for human MCF7 cells
PC-3 [21] = experiment: Cytotoxicity against human PC3 cells assessed as cell survival at 50 uM after 48 hrs by Hoechst 33342 staining based assay relative to control; type: functional; conditions: PC-3, 48 h, read-out: Survival
Fibroblast = experiment: Cytotoxicity against human fibroblasts assessed as cell viability after 48 hrs by Hoechst 33342 staining based assay
Huh-7 [22] = experiment: Cytotoxicity against human HuH7 cells assessed as cell viability after 48 hrs by Hoechst 33342 staining based assay; type: functional; conditions: Huh-7, 48 h
NCI-H727 [23] = experiment: Cytotoxicity against human NCI-H727 cells assessed as cell viability after 48 hrs by Hoechst 33342 staining based assay; type: functional; conditions: NCI-H727, 48 h
[24] = Selectivity index, ratio of IC50 for human fibroblasts to IC50 for human HCT116 cells
RL = experiment: Cytotoxicity against human RL assessed as cell viability after 48 hrs by Hoechst 33342 staining based assay; type: functional
Caco-2 [25] = experiment: Cytotoxicity against human Caco2 cells assessed as cell survival at 50 uM after 48 hrs by Hoechst 33342 staining based assay relative to control; type: functional; conditions: Caco-2, 48 h, read-out: Survival
HCT-116 [26] = experiment: Induction of apoptosis in human HCT116 cells harboring wild-type p53 assessed as upregulation of cyclinB1 measured after 48 hrs by Hoechst staining based assay; type: functional, cell-based
HCT-116 [27] = experiment: Induction of apoptosis in human HCT116 cells harboring wild-type p53 assessed as increase in cleaved caspase3 at 2 times IC50 after 48 hrs by Hoechst staining based assay; type: functional, cell-based
HCT-116 [28] = experiment: Induction of apoptosis in human HCT116 cells harboring wild-type p53 assessed as increase in late apoptosis at 2 times IC50 after 48 hrs by YoPro/propidium iodide/Hoechst staining based assay; type: functional, cell-based
MDA-MB-231 [29] = experiment: Induction of apoptosis in human MDA-MB-231 cells harboring p53 mutant assessed as increase in late apoptosis at 2 times IC50 after 24 hrs by YoPro/propidium iodide/Hoechst staining based assay; type: functional, cell-based
MCF7 [30] = experiment: Induction of apoptosis in human MCF7 cells harboring wild-type p53 assessed as increase in late apoptosis at 2 times IC50 after 24 hrs by YoPro/propidium iodide/Hoechst staining based assay; type: functional, cell-based
MDA-MB-231 [31] = experiment: Induction of apoptosis in human MDA-MB-231 cells harboring p53 mutant assessed as increase in early apoptosis at 2 times IC50 after 24 hrs by YoPro/propidium iodide/Hoechst staining based assay; type: functional, cell-based
MCF7 [32] = experiment: Induction of apoptosis in human MCF7 cells harboring wild-type p53 assessed as upregulation of cyclinB1 measured after 18 hrs by Hoechst staining based assay; type: functional, cell-based
HCT-116 [33] = experiment: Induction of apoptosis in human HCT116 cells harboring wild-type p53 assessed as increase in early apoptosis at 2 times IC50 after 48 hrs by YoPro/propidium iodide/Hoechst staining based assay; type: functional, cell-based
MCF7 [34] = experiment: Induction of apoptosis in human MCF7 cells harboring wild-type p53 assessed as upregulation of p21 measured after 48 hrs by Hoechst staining based fluorescence assay; type: functional, cell-based
HCT-116 [35] = experiment: Induction of apoptosis in human HCT116 cells harboring wild-type p53 assessed as upregulation of p21 measured after 48 hrs by Hoechst staining based fluorescence assay; type: functional, cell-based
PC-3 [36] = experiment: Induction of apoptosis in human PC3 cells harboring p53 mutant assessed as increase in early apoptosis at 2 times IC50 after 48 hrs by YoPro/propidium iodide/Hoechst staining based assay; type: functional, cell-based
MCF7 [37] = experiment: Induction of apoptosis in human MCF7 cells harboring wild-type p53 assessed as increase in early apoptosis at 2 times IC50 after 24 hrs by YoPro/propidium iodide/Hoechst staining based assay; type: functional, cell-based
MDA-MB-231 [38] = experiment: Induction of apoptosis in human MDA-MB-231 cells harboring p53 mutant assessed as upregulation of cyclinB1 after 18 hrs by Hoechst staining based assay; type: functional, cell-based
PC-3 [39] = experiment: Induction of apoptosis in human PC3 cells harboring p53 mutant assessed as increase in cleaved caspase3 at 2 times IC50 after 48 hrs by Hoechst staining based assay; type: functional, cell-based
PC-3 [40] = experiment: Induction of apoptosis in human PC3 cells harboring p53 mutant assessed as upregulation of cyclinB1 after 48 hrs by Hoechst staining based assay; type: functional, cell-based
PC-3 [41] = experiment: Induction of apoptosis in human PC3 cells harboring p53 mutant assessed as increase in late apoptosis at 2 times IC50 after 48 hrs by YoPro/propidium iodide/Hoechst staining based assay; type: functional, cell-based
MDA-MB-231 [42] = experiment: Induction of apoptosis in human MDA-MB-231 cells harboring p53 mutant assessed as increase in cleaved caspase3 at 2 times IC50 after 24 hrs by Hoechst staining based assay; type: functional, cell-based

COc1cc(OC)c(C(=O)/C=C/c2ccccc2OC)c(OC)c1
viability at 50 µM (HaCaT [1]): 23%
viability at 48 h, 50 µM [2]: 77%
Ratio IC50 [3]: 1
pIC50 (HCT-116 [4]): 5.38
Ratio IC50 [5]: 0.9
pIC50 (Caco-2 [6]): 5.35
pIC50 (PC-3 [7]): 5.09
Ratio IC50 [8]: 1.8
Ratio IC50 [9]: 0.9
viability at 50 µM (Huh-7 [10]): 6%
pIC50 (MCF7 [11]): 5.05
pIC50 (HaCaT [12]): 5.06
Ratio IC50 [13]: 0.6
viability at 50 µM (NCI-H727 [14]): 1%
viability at 50 µM (MDA-MB-231 [15]): 11%
Ratio IC50 [16]: 0.8
Ratio IC50 [17]: 2.1
viability at 50 µM (HCT-116 [18]): 0%
pIC50 (MDA-MB-231 [19]): 4.89
Ratio IC50 [20]: 0.9
viability at 50 µM (PC-3 [21]): 32%
pIC50 (Fibroblast): 5.09
pIC50 (Huh-7 [22]): 5.01
pIC50 (NCI-H727 [23]): 5.40
Ratio IC50 [24]: 2
pIC50 (RL): 5.05
viability at 50 µM (Caco-2 [25]): 5%

COc1cc(OC)c(C(=O)/C=C/c2ccc(C(=O)O)cc2)c(OC)c1
viability at 50 µM (HaCaT [1]): 59%
viability at 48 h, 50 µM [2]: 57%
viability at 50 µM (Huh-7 [10]): 38%
viability at 50 µM (NCI-H727 [14]): 23%
viability at 50 µM (MDA-MB-231 [15]): 68%
viability at 50 µM (HCT-116 [18]): 7%
viability at 50 µM (PC-3 [21]): 39%
viability at 50 µM (Caco-2 [25]): 25%

COc1cc(O)c(C(=O)/C=C/c2ccc(N(C)C)cc2)c(OC)c1
viability at 50 µM (HaCaT [1]): > 80%
viability at 48 h, 50 µM [2]: > 80%
viability at 50 µM (Huh-7 [10]): > 80%
viability at 50 µM (NCI-H727 [14]): > 80%
viability at 50 µM (MDA-MB-231 [15]): > 80%
viability at 50 µM (HCT-116 [18]): > 80%
viability at 50 µM (PC-3 [21]): > 80%
viability at 50 µM (Caco-2 [25]): > 80%

COc1cc(O)c(C(=O)/C=C/c2ccc(C(=O)O)cc2)c(OC)c1
viability at 50 µM (HaCaT [1]): > 80%
viability at 48 h, 50 µM [2]: > 80%
viability at 50 µM (Huh-7 [10]): > 80%
viability at 50 µM (NCI-H727 [14]): > 80%
viability at 50 µM (MDA-MB-231 [15]): > 80%
viability at 50 µM (HCT-116 [18]): > 80%
viability at 50 µM (PC-3 [21]): > 80%
viability at 50 µM (Caco-2 [25]): > 80%

COc1cc(O)c(C(=O)/C=C/c2ccc(Cl)cc2)c(OC)c1
viability at 50 µM (HaCaT [1]): > 80%
viability at 48 h, 50 µM [2]: > 80%
viability at 50 µM (Huh-7 [10]): > 80%
viability at 50 µM (NCI-H727 [14]): > 80%
viability at 50 µM (MDA-MB-231 [15]): > 80%
viability at 50 µM (HCT-116 [18]): > 80%
viability at 50 µM (PC-3 [21]): > 80%
viability at 50 µM (Caco-2 [25]): > 80%

COc1cc(OC)c(C(=O)/C=C/c2ccc(O)cc2)c(OC)c1
viability at 50 µM (HaCaT [1]): 16%
viability at 48 h, 50 µM [2]: 65%
viability at 50 µM (Huh-7 [10]): 45%
viability at 50 µM (NCI-H727 [14]): 42%
viability at 50 µM (MDA-MB-231 [15]): 32%
viability at 50 µM (HCT-116 [18]): 17%
viability at 50 µM (PC-3 [21]): 33%
viability at 50 µM (Caco-2 [25]): 24%

COc1ccc(/C=C/C(=O)c2c(O)cc(OC)cc2OC)cc1 [FLAVOKAWAIN A]
viability at 50 µM (HaCaT [1]): 35%
viability at 48 h, 50 µM [2]: 67%
viability at 50 µM (Huh-7 [10]): 50%
viability at 50 µM (NCI-H727 [14]): 40%
viability at 50 µM (MDA-MB-231 [15]): 58%
viability at 50 µM (HCT-116 [18]): 20%
viability at 50 µM (PC-3 [21]): 43%
viability at 50 µM (Caco-2 [25]): 32%

COc1cc(O)c(C(=O)/C=C/c2ccc(Br)cc2)c(OC)c1
Activity (HCT-116 [26]): inactive
viability at 50 µM (HaCaT [1]): 66%
viability at 48 h, 50 µM [2]: > 80%
Activity (HCT-116 [27]): inactive
Activity (HCT-116 [28]): inactive
Activity (MDA-MB-231 [29]): inactive
Activity (MCF7 [30]): inactive
viability at 50 µM (Huh-7 [10]): > 80%
Activity (MDA-MB-231 [31]): inactive
Activity (MCF7 [32]): inactive
viability at 50 µM (NCI-H727 [14]): 72%
viability at 50 µM (MDA-MB-231 [15]): > 80%
Activity (HCT-116 [33]): inactive
Activity (MCF7 [34]): inactive
Activity (HCT-116 [35]): inactive
Activity (PC-3 [36]): inactive
viability at 50 µM (HCT-116 [18]): > 80%
viability at 50 µM (PC-3 [21]): 58%
Activity (MCF7 [37]): inactive
Activity (MDA-MB-231 [38]): inactive
Activity (PC-3 [39]): inactive
Activity (PC-3 [40]): inactive
Activity (PC-3 [41]): inactive
viability at 50 µM (Caco-2 [25]): > 80%
Activity (MDA-MB-231 [42]): inactive
